Assay results taken from publication PMC7809356, “Structural characterization of a GNAT family acetyltransferase from Elizabethkingia anophelis bound to acetyl-CoA reveals a new dimeric interface” (Scientific Reports, 2021).

Experiments:
[1] = target: T1, GNAT family acetyltransferase from Elizabethkingia anophelis (BAY10_3400) (Elizabethkingia anophelis, UniProt Z9UBX7MZA9); assay: X-ray crystallography, […] A; format: binding; conditions: co-crystallised with 5 mM acetyl-CoA, 100 mM Tris/HCl pH 5.5, 2 M ammonium sulfate, 285 K; active site
T1 construct: full length, non-cleavable N-terminal His6-tag (vector BG1861), expressed in E. coli Rosetta BL21(DE3)R3; all residues modelled except N-terminal Met; monomer and dimer in SEC, crystal from dimer peak

[2] = target: GNAT family acetyltransferase from Elizabethkingia anophelis (Elizabethkingia anophelis); assay: SEC; preparative HiLoad 26/60 Superdex 75 in 25 mM HEPES, 500 mM NaCl, 5% glycerol, 2 mM DTT, 0.025% azide pH 7.0; calibrated with conalbumin, ovalbumin and ribonuclease A; molecular weights from the elution volume

Compound	X-ray crystallography, 1.85 A [1]	stoichiometry N [2]
CC(=O)SCCNC(=O)CCNC(=O)[C@H](O)C(C)(C)COP(=O)(O)OP(=O)(O)OC[C@H]1O[C@@H](n2cnc3c(N)ncnc32)[C@H](O)[C@@H]1OP(=O)(O)O [acetyl-CoA]	Our structure contained a well-ordered acetyl-CoA molecule bound in the active site	
GNAT family acetyltransferase from Elizabethkingia anophelis (enzyme)		2
